According to paper PMC11855827, “High-Throughput Screening of Five Compound Libraries for Anthelmintic Activity and Toxicity Leads to the Discovery of Two Flavonoid Compounds” (International Journal of Molecular Sciences, 2025):
Where two headings read alike, the source gives them in different places.

Test system: C. elegans
[1] = Table S2, C. elegans SS assay, 110 μM, 0 h, averages of 4 data points
[2] = Table S2, C. elegans SS assay, 110 μM, 24 h, averages of 4 data points

Compound | Percentage of motility inhibition 0 h [1] | Percentage of motility inhibition 24 h [2] | other results
CC(C)(O)[C@@H]1CC[C@](C)([C@H]2[C@@H](O)C[C@@]3(C)[C@@H]4C[C@H](O)[C@H]5C(C)(C)[C@@H](O)CC[C@@]56C[C@@]46CC[C@]23C)O1 [Cycloastragenol] | 8% | 31% | –
C[C@H]1CC[C@]2(C(=O)O)CC[C@]3(C)C(=CC[C@@H]4[C@@]5(C)CC[C@H](O[C@@H]6OC[C@@H](O)[C@H](O)[C@H]6O[C@@H]6O[C@H](CO)[C@@H](O)[C@H](O)[C@H]6O)C(C)(C)[C@@H]5CC[C@]43C)[C@@H]2[C@]1(C)O [Ilexoside D] | 0% | 22% | –
COc1ccc(-c2oc3c(CC=C(C)C)c(O)cc(O)c3c(=O)c2O[C@@H]2O[C@@H](C)[C@H](O)[C@@H](O)[C@H]2O[C@@H]2O[C@H](CO)[C@@H](O)[C@H](O)[C@H]2O)cc1 [Sagittatoside A] | 43% | 12% | –
O=C(O)C1=CO[C@@H](O[C@@H]2O[C@H](CO)[C@@H](O)[C@H](O)[C@H]2O)[C@@H]2C(CO)=C[C@H](O)[C@H]12 [Deacetylasperulosidic Acid] | 0% | 8% | –
Nc1nc(NC2CC2)c2ncn([C@H]3C=C[C@@H](CO)C3)c2n1.Nc1nc(NC2CC2)c2ncn([C@H]3C=C[C@@H](CO)C3)c2n1.O=S(=O)(O)O [Abacavir (sulfate)] | 29% | 2% | –
C[C@H](CC[C@@H](O[C@@H]1O[C@H](CO[C@@H]2O[C@H](CO)[C@@H](O)[C@H](O)[C@H]2O)[C@@H](O)[C@H](O)[C@H]1O[C@@H]1O[C@H](CO)[C@@H](O)[C@H](O)[C@H]1O)C(C)(C)O)[C@H]1CC[C@@]2(C)[C@@H]3CC=C4[C@@H](CC[C@H](O[C@@H]5O[C@H](CO)[C@@H](O)[C@H](O)[C@H]5O)C4(C)C)[C@]3(C)[C@H](O)C[C@]12C [Siamenoside I] | 16% | 10% | –
Tarasaponin VI | 0% | 0% | –
Benzalkonium chloride | 50% | 58% | –
Cl.O[C@H]1CCN2Cc3ccccc3N=C12 [Vasicine (hydrochloride)] | 0% | 2% | –
CC(=O)[O-].CC(=O)[O-].O.O.O.O.[Mg+2] [Magnesium acetate tetrahydrate] | 2% | 0% | –
COc1ccc(-c2cc(=O)c3c(O)c(OC)c(OC)c(OC)c3o2)cc1OC [5‐O‐Demethylnobiletin] | 26% | 29% | –
COc1cc2c(cc1O)[C@@H](Cc1ccc(O)c(Oc3ccc(C[C@@H]4c5cc(OC)c(OC)cc5CCN4C)cc3)c1)N(C)CC2 [Daurisoline] | 23% | 12% | –
Milbemycin [reference compound] | – | – | Inhibition (%) 110 μM (0 h): 100 ± 0%; Inhibition (%) 110 μM (24 h): 86 ± 14%
COc1ccc(-c2oc3c(OC)c(OC)c(OC)c(OC)c3c(=O)c2OC)cc1OC [3,5,6,7,8,3',4'‐Heptemthoxyflavone] | 34% | 6% | –
CC(=O)OC[C@]12C[C@H](OC(=O)CC(C)C)C(C)=C[C@H]1O[C@@H]1[C@H](O)[C@@H](OC(C)=O)[C@@]2(C)[C@]12CO2 [T-2 Toxin] | – | – | Percentage of motility inhibition 0 h (110 µM): 11%; Percentage of motility inhibition 24 h (110 µM): 2%
CCCCCCCCCCCC(=O)O [Lauric acid] | 58% | 61% | –
Nc1ncnc2c1ncn2[C@@H]1O[C@H](COP(=O)(O)O)[C@@H](O)[C@H]1O.O [Adenosine 5'-monophosphate (monohydrate)] | 20% | 2% | –
COC1=C(C)C(=O)O[C@]12C(=O)C(C)=C1CCCCN3[C@H]([C@@H]4C[C@H](C)C(=O)O4)CC[C@@]132 [Protostemotinine] | 0% | 22% | –
CC1OC(OC2C(Oc3cc(O)c4c(=O)cc(-c5ccc(O)cc5)oc4c3)OC(COC3OC(CO)C(O)C(O)C3O)C(O)C2O)C(O)C(O)C1O (stereo not shown) [Apigenin‐7‐O‐(2G‐rhamnosyl)gentiobioside] | 10% | 0% | –
COC(=O)[C@@H]1[C@H]2C[C@H]3c4[nH]c5ccccc5c4CCN3C[C@@H]2CC[C@@H]1O.Cl [Yohimbine (Hydrochloride)] | 24% | 0% | –
CO[C@@H]1C=C2[C@@H]3CC(C)(C)CC[C@]3(CO)[C@H](O)C[C@@]2(C)[C@]2(C)CC[C@H]3[C@](C)(CO)[C@@H](O[C@@H]4O[C@H](C)[C@H](O)[C@H](O[C@@H]5O[C@H](CO)[C@@H](O)[C@H](O)[C@H]5O)[C@H]4O)CC[C@]3(C)[C@@H]12 [Saikosaponin B4] | 13% | 36% | –
CC1(C)CC[C@]2(C)CC[C@]3(C)C(=CC[C@@H]4[C@@]5(C)CC[C@@H](O)[C@](C)(C(=O)O)[C@@H]5CC[C@]43C)[C@@H]2C1 [alpha-Boswellic acid] | 34% | 28% | –

Compound | Percentage of motility inhibition 0 h [1] | Percentage of motility inhibition 24 h [2] | other results
COC(=O)[C@]12CCC(C)(C)C[C@H]1C1=CC[C@@H]3[C@@]4(C)CCC(=O)C(C)(C)[C@@H]4CC[C@@]3(C)[C@]1(C)CC2 [Methyl oleanonate] | 4% | 1% | –
Alisol B 23-acetate | 0% | 2% | –
(±)‐10‐Hydroxycamptothecin | 0% | 0% | –
Clc1ccc(COC(Cn2ccnc2)c2ccc(Cl)cc2Cl)cc1.O=[N+]([O-])O (stereo not shown) [Econazole (nitrate)] | 35% | 13% | –
C[C@H]1CC[C@@H]2N(C1)C[C@H]1[C@@H]3C[C@H]4[C@@H](CC(=O)[C@H]5C[C@@H](O[C@@H]6O[C@H](CO)[C@@H](O)[C@H](O)[C@H]6O)CC[C@@]54C)[C@@H]3CC[C@@H]1[C@]2(C)O [Edpetiline] | 11% | 56% | –
Cl.Cl.NCCc1c[nH]cn1 [Histamine (dihydrochloride)] | 0% | 3% | –
CN1[C@H]2C[C@H](OC(=O)[C@H](CO)c3ccccc3)C[C@@H]1[C@@H](O)C2 [Anisodamine] | 10% | 5% | –
COc1ccc(-c2cc(=O)c3c(O)cc(OC)cc3o2)cc1 [7,4'‐Di‐O‐methylapigenin] | 0% | 9% | –
CN[C@H](CC(C)C)C(=O)N[C@H]1C(=O)N[C@@H](CC(N)=O)C(=O)N[C@H]2C(=O)N[C@H]3C(=O)N[C@H](C(=O)N[C@H](C(=O)O)c4cc(O)cc(O)c4-c4cc3ccc4O)[C@H](O[C@H]3C[C@](C)(N)[C@@H](O)[C@H](C)O3)c3ccc(c(Cl)c3)Oc3cc2cc(c3O[C@@H]2O[C@H](CO)[C@@H](O)[C@H](O)[C@H]2O[C@H]2C[C@](C)(NCc3ccc(-c4ccc(Cl)cc4)cc3)[C@@H](O)[C@H](C)O2)Oc2ccc(cc2Cl)[C@H]1O.O=P(O)(O)O.O=P(O)(O)O [Oritavancin (diphosphate)] | 34% | 8% | –
NC[C@@H]1O[C@H](O[C@H]2[C@@H](O)[C@H](O[C@@H]3[C@@H](O)[C@H](N)C[C@H](N)[C@H]3O[C@H]3O[C@H](CN)[C@@H](O)[C@H](O)[C@H]3N)O[C@@H]2CO)[C@H](N)[C@@H](O)[C@@H]1O.O=S(=O)(O)O [Neomycin (sulfate)] | 21% | 3% | –
Cn1nnc(-c2ccc(-c3ccc(N4C[C@H](COP(=O)(O)O)OC4=O)cc3F)cn2)n1 [Tedizolid (phosphate)] | 10% | 12% | –
Brusatol | 48% | 37% | –
Cc1ccc(Nc2cc(-c3cccc(N4C(=O)c5ccccc5C4=O)c3)ncn2)cc1NS(C)(=O)=O [CDK9‐IN‐1] | 54% | 3% | –
C[C@H](CC(=O)C[C@](C)(O)[C@@H]1CC(=O)[C@@]2(C)C3=C(C(=O)C[C@]12C)[C@@]1(C)CC[C@H](O)C(C)(C)[C@@H]1C[C@@H]3O)C(=O)O [Ganoderic acid I] | 0% | 11% | –
COc1ccc(-c2cc(=O)c3c(OC)cc(OC)cc3o2)cc1 [5,7,4'‐Trimethoxyflavone] | 0% | 1% | –
Bulleyaconitine A | 26% | 26% | –
CC1CCC(C(C)C)C(O)C1 (stereo not shown) [Menthol] | 3% | 17% | –
CC(=O)OC1CCC2(C)C(CCC3(C)C2CC=C2C4CC(C)(C)CCC4(C)CCC23C)C1(C)C(=O)O (stereo not drawn) [3-O-Acetyl-α-boswellic acid] | 20% | 14% | –
C[C@@H]1O[C@@H](O[C@@H]2[C@@H](O)[C@H](O[C@H]3CC[C@]4(C)[C@H]5CC=C6[C@@H]7CC(C)(C)CC[C@]7(C(=O)O[C@@H]7O[C@H](CO)[C@@H](O)[C@H](O)[C@H]7O)CC[C@@]6(C)[C@]5(C)CC[C@H]4C3(C)C)O[C@H](C(=O)O)[C@H]2O)[C@H](O)[C@H](O)[C@H]1O | 6% | 0% | –
CC(Cc1ccc(O)c(O)c1)C(C)Cc1ccc(O)c(O)c1 (stereo not shown) [Nordihydroguaiaretic acid] | 8% | 21% | –
O.O.O=C([O-])CC(O)(CC(=O)[O-])C(=O)[O-].[Na+].[Na+].[Na+] [Sodium citrate (dihydrate)] | 32% | 2% | –
O[C@H]1CCN2Cc3ccccc3N=C12 (racemic) [(±)‐Vasicine] | 3% | 31% | –
